We go through two molecules from US10485769B2, “Cholesteryl ester transfer protein (CETP) inhibition in the treatment of cancer” (KING ABDULLAH UNIVERSITY OF SCIENCE AND TECHNOLOGY, priority 2015, dated 2019).

Each structure is given as a SMILES string.

The subject of one assay is MCF-7 cells. The experiment in a line: Mitochondrial Outer Membrane Potential (MOMP) by flow cytometry. As to conditions: 10 μM PL, AP; 100 mM H2O2 positive control; versus untreated cells. In kind it is cell-based, human. As to the method: FIG. 2: Mode of induction in MCF-7 cells after treatment with AP and PL was determined by measuring changes in MOMP and levels of apoptosis-associated proteins. The cells were incubated with 10 μM AP and PL for different time intervals to capture the timeline of apoptosis induction in MCF-7 cells. The changes in MOMP were measured using flow cytometry after treating MCF-7 cells with PL and AP for 1, 2 and 4 h (A). The alteration in expression of several apoptosis-associated proteins were determined using western blotting after incubating MCF-7 cells for 1, 2, 4, 6 h with PL (C, E) and AP (D. F).
The changes in Mitochondrial Outer Membrane Potential (MOMP) and proteins involved in the apoptotic cascade were assessed (FIG. 2).
Background: Flow cytometry measures light scatter and fluorescence of single cells or particles in a stream.

Another assay deals with MCF-7 CETP siRNA cells. Nature of the assay: MMP, caspase-3/7 activity and apoptosis in CETP knockdown MCF-7 cells. In kind it is cell-based, human. The settings on record: 25 μM tamoxifen, 24 h, CETP knockout cells. As for the experimental part:
FIG. 10: The effect of CETP mRNA silencing on MMP (A), Capase-3/7 activity (B) and apoptosis in MCF-7 (C) and BJ (D) untransfected, cntl siRNA and CETP knockout cells after treatment with 10 μM PL or AP. Values represent the means±SD of three independent experiments.
FIG. 12: The effect of CETP mRNA knockout on Capase-3/7 activity (A) and apoptosis (B) in MCF-7 cntl siRNA and CETP knockout cells after treatment with 25 μM tamoxifen for 24 h. Values represent the means±SD of three independent experiments.
Since, as shown above, CETP is required for optimal growth of MCF-7 cells, we further hypothesized that CETP may help cancer cell to resist/escape apoptotic signals thus preventing cell death. Several apoptotic markers such as MOMP, phosphatidylserine exposure and caspase-3/7 activity were tested to establish a link between CETP and apoptosis.
Next, we intended to see if CETP silencing increased sensitivity of MCF-7 cells to apoptosis.
To test if effect of CETP knockout on apoptosis in MCF-7 is limited to AP, we treated the CETP knockout MCF-7 cells with tamoxifen (a known first line drug for breast cancer treatment). […] This observation was not limited to PL and AP as similar observations were made in CETP knockdown cells treated with tamoxifen (FIG. 12).

As to `OO` [H2O2], the “MOMP, fluorescence in the FL-2 channel” value with MCF-7 cells is “lower fluorescent values”. As to `CC/C(=C(\c1ccccc1)c1ccc(OCCN(C)C)cc1)c1ccccc1` [tamoxifen], the caspase-3/7 activity result with MCF-7 CETP siRNA cells is recorded as “significant increase”.
